From patent publication US20260356860A1, “2-SUBSTITUTED 3,4A,5,7,8,8A-HEXAHYDRO-4H-THIOPYRANO[4,3-DJPYRIMIDIN-4-ONES FOR WOUND TREATMENT” (priority 2022, published 2026)

Legend:
[1] = test system: full thickness excisional wounds; test: Rete ridge formation (full thickness wound healing study); assay type: in vivo, Yucatan Miniature Swine; conditions: rete ridge/mm
Description: A 21-day full thickness open excisional wound healing study was conducted on Yucatan™ Miniature Swine (Sinclair BioResources, Auxvasse, Missouri, USA) to evaluate the efficacy of healing and local tissue reaction of compounds of Formula (I). Compounds and controls were topically administered on full thickness open excisional wounds once every other day (total 11 doses).
(§1) Additional tests were performed including elasticity (Table 12); max force (Table 13); tensile strength (strain) (Table 14); energy peak (Table 15); rete-ridge formation; and collagen organization (plane polarized light) (FIG. 24) of the healed wound sites, described as follows.
Improved rete ridge formation is described as epithelial extensions that project into the underlying connective tissue in both skin and mucous membrances—improved rete ridge formation is a sign of tissue regeneration rather than fibrosis/scarring (reduced rete ridge formation).

[2] = test system: C. acnes (derived from ATCC ® 11827 ™); test: Bacteriostasis, log reduction; assay type: cell-based
closed excisional wounds = test: Collagen organization (plane polarized light) of closed excisional wounds; assay type: in vivo, Yucatan Miniature Swine
Description: as §1
Regarding collagen organization, the number of wounds indicating collagen infiltration into the scar were identified by polarized imaging (plane polarized light).

healed wound sites = test: Physical properties of healed wounds, summary; assay type: in vivo, porcine; conditions: compared to the control
Description: as §1
Wounds treated with 0.9% saline provided the least wound healing integrity for elasticity, max force, strain, and energy peak parameters.

Structure (SMILES): CC(C)(OCCO)c1ccc(-c2nc3c(c(=O)[nH]2)CSCC3)cc1 [Compound 8, 2-(4-(2-(2-hydroxyethoxy)propan-2-yl)phenyl)-3,5,7,8-tetrahydro-4H-thiopyrano[4,3-d]pyrimidin-4-one]
- rete ridge formation compared to the saline control [1]: improved wound healing compared to the saline control (rete ridge/mm)

Structure (SMILES): COC(=O)NCCOC(C)(C)c1ccc(-c2nc3c(c(=O)[nH]2)CSCC3)cc1 [Compound 18, methyl (2-((2-(4-(4-oxo-3,5,7,8-tetrahydro-4H-thiopyrano[4,3-d]pyrimidin-2-yl)phenyl)propan-2-yl)oxy)ethyl)carbamate]
- Average result ([2]; 24 h): 10.7 × 10^4
- Log Reduction ([2]; 24 h): 0.7
- Log Value ([2]; 24 h): 4.2
- Average result ([2]; 72 h): 6.5 × 10^3
- Log Reduction ([2]; 72 h): 1.1
- Log Value ([2]; 72 h): 3.8

Structure (SMILES): O=c1[nH]c(-c2ccc(-c3ccc(Br)nc3)cc2)nc2c1CSCC2 [Compound 7, 2-(4-(6-bromopyridin-3-yl)phenyl)-3,5,7,8-tetrahydro-4H-thiopyrano [4,3-d]pyrimidin-4-one]
- rete ridge formation compared to the saline control [1]: improved wound healing compared to the saline control (rete ridge/mm)

Structure (SMILES): O=c1[nH]c(-c2ccc(-c3ccc(B(O)O)cc3)cc2)nc2c1CSCC2 [Compound 10, (4′-(4-oxo-3,5,7,8-tetrahydro-4H-thiopyrano[4,3-d]pyrimidin-2-yl)-[1,1′-biphenyl]-4-yl)boronic acid]
- number of wounds indicating collagen infiltration into the scar (closed excisional wounds): 7 wounds
- wound healing integrity (physical properties of the healed wound site) (healed wound sites): greatest wound healing integrity
